Source: patent publication US20260217708A1, “FUSED BENZAZEPINE DERIVATIVES FOR USE IN THE TREATMENT OF CANCER AND EPILEPSY” (UCB BIOPHARMA SRL, priority 2023, published 2026)

Key:
[1] = target: T1, system Xc^− (Homo sapiens, UniProt Q9UPY5); test: Cystine-induced glutamate release assay; type: cell-based; set-up: endogenous in cells; host or cells: H4 cells; conditions: H4 cells, sodium-free HEPES buffer, 50 μM L-Cystine, 2 hours, Amplex Red glutamate readout; read-out: pIC50 Cystine-induced glutamate release assay (converted)
T1 sequence (Q9UPY5 1-501): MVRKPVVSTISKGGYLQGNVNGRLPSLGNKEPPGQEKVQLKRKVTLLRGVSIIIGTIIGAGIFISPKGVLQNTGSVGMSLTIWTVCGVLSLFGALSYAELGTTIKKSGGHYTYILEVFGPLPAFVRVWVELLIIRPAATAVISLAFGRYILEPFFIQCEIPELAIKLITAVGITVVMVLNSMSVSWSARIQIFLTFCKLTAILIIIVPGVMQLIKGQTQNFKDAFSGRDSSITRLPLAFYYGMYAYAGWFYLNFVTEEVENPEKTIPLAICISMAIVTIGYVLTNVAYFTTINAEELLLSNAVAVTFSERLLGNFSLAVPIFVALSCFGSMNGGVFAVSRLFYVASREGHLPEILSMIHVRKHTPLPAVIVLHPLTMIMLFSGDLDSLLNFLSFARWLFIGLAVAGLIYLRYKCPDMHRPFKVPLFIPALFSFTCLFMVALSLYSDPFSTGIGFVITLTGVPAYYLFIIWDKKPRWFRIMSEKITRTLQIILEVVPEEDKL
T1 sequence (P08195 1-529 partner): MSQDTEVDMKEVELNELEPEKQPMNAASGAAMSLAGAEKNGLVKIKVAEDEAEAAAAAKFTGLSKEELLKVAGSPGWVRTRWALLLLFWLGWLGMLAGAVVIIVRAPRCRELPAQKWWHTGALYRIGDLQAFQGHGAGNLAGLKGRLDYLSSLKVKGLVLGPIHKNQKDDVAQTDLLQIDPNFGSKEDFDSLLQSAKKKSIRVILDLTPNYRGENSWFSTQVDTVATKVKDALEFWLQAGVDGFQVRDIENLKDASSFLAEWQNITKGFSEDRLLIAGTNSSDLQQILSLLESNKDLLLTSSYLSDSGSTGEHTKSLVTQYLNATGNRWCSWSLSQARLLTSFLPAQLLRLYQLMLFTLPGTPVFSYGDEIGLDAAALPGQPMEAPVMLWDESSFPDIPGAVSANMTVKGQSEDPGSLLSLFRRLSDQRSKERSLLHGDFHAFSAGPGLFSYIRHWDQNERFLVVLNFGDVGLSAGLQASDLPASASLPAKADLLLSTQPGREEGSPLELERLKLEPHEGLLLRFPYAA
Excerpt: (§1) The effect of compounds of Formula (I) on the system Xc^− functionality was examined in two independent cell assays: (i) measurement of cystine-induced glutamate release; and (ii) measurement of [^14C]L-Cystine uptake.
(§2) As described above, System Xc^−, also known as the cystine/glutamate antiporter, is an amino acid transporter that mediates the extrusion of intracellular L-glutamate outside the cell and the uptake of extracellular L-cystine into the cell.
(§3) By measuring respectively, the concentration of glutamate released outside the cell and the L-cystine uptaken in the cell, with increasing concentrations of compounds of formula (I) according to the present invention, the efficacy of said compounds to inhibit the System Xc^− function can be evaluated.
(§4) The efficacy of the compounds to inhibit system Xc^− is represented by measuring the IC50 which corresponds to the concentration of compound necessary to inhibit 50% of the signals from the two control groups; DMSO 1% and Erastin 50 μM in the respective assays. pIC50 values correspond to −log of the IC50 in Molar.
Measurement of cystine-induced glutamate release indicates levels of glutamate (outside of the cell) that are dependent on system Xc^− antiporter function. Upon the addition of L-Cystine to H4 cells, intracellular glutamate is counter-transported and exported in the supernatant.
In this assay, the medium is devoid of sodium to prevent the transport of glutamate by sodium-dependent excitatory amino acid transporters (EAATs). H4 cells were plated on 384-well culture plate at 1×10^4 cells/well in Dulbecco's Modified Eagle Medium (DMEM) with L-glutamine, penicillin/streptomycin and 10% fetal bovine serum (all from ThermoFisher Scientific) and incubated in a humidified CO2 incubator at 37° C. After 2 days, cells were washed 4 times with prewarmed sodium-free HEPES buffer (contents in mM: HEPES 10, KCl 5.4, CaCl2 2.5, MgCl2 1, KH2PO4 0.4, D-Glucose 5, Choline chloride 140), pH 7.4. Glutamate release was induced by addition of 50 μM of L-Cystine (Sigma-Aldrich), together with a test compound of Formula (I) at 1% final DMSO concentration. After 2 hours of incubation in the culture incubator, supernatants were transferred to a low-binding polypropylene 384-well plate to determine L-glutamate concentration using Amplex™ Red Glutamic Acid Assay Kit (ThermoFisher Scientific). Briefly, 10 μL of Amplex™ Red working solution was added to 10 μL of the supernatant, then the mixture was incubated for 30 min at 37° C. Fluorescence intensity was measured by EnVision microplate reader (PerkinElmer).

[2] = target: T1, system Xc^−; test: [^14C]L-Cystine uptake assay; type: cell-based; set-up: endogenous in cells; host or cells: H4 cells; conditions: H4 cells, sodium-free HEPES buffer, 0.5 μM L-[14C]Cystine and 4.5 μM L-Cystine, 1 hour at 37° C.; read-out: pIC50 [^14C] L-Cystine uptake assay (converted)
Excerpt: as §1, §2, §3, §4
In this assay, the medium is devoid of sodium to prevent the transport of glutamate by sodium-dependent excitatory amino acid transporters (EAATs). H4 cells were plated on a 96-well CytoStar-T scintillating microplate (PerkinElmer) at 5×10^4 cells/well in the medium described above. After 1 day, cells were washed one time with the sodium-free HEPES buffer and preincubated with test compounds of Formula (I) (1% final DMSO) for 15 min. Uptake was initiated by adding 0.5 μM L-[1,2, 1′,2′-^14C]Cystine (0.02 mCi/mL, PerkinElmer, Waltham, US) and 4.5 μM L-Cystine (Sigma-Aldrich). After 1 hour at 37° C., plates were counted in a MicroBeta^2 microplate counter (PerkinElmer).

Row | IC50 [1] | IC50 [2] | SMILES
1 | < 15.8 nM | < 15.8 nM | Cc1cc2c(c(Cl)n1)-c1cccnc1C(C)C(=O)N2CC(=O)Nc1ccc(C(F)F)cc1 (single isomer, unassigned) [#116, 2-[3-chloro-5,10-dimethyl-9-oxo-4,8,12-triazatricyclo[9.4.0.0^2,7]pentadeca-1(11),2(7),3,5,12,14-hexaen-8-yl]-N-[4-(difluoromethyl)phenyl]acetamide]
2 | < 15.8 nM | < 15.8 nM | Cc1cc2c(c(Cl)n1)-c1cccnc1C(C)C(=O)N2CC(=O)Nc1ccc(Cl)c(F)c1 (single isomer, unassigned) [#117, 2-[3-chloro-5,10-dimethyl-9-oxo-4,8,12-triazatricyclo[9.4.0.0^2,7]pentadeca-1(15),2(7),3,5,11,13-hexaen-8-yl]-N-(4-chloro-3-fluorophenyl)acetamide]
3 | < 15.8 nM | < 15.8 nM | Cc1cc2c(n(C)c1=O)-c1ccccc1C(C)C(=O)N2CC(=O)Nc1ccc(C(F)(F)F)cc1 (single isomer, unassigned) [#121, N-[4-(trifluoromethyl)phenyl]-2-[1,3,7-trimethyl-2,6-dioxo-7H-pyrido[3,2-d][3]benzazepin-5-yl]acetamide]
4 | 39.8 to 100 nM | 100 to 501 nM | Cc1cc2c(c(F)n1)-c1cccnc1[C@@H](C)C(=O)N2CC(=O)Nc1ccc(C2CC2(F)F)cc1 (single isomer, unassigned) [#146]
5 | < 15.8 nM | < 15.8 nM | Cc1cc2c(c(C#N)n1)-c1cccnc1C(C)C(=O)N2CC(=O)Nc1ccc(Cl)c(F)c1 (single isomer, unassigned) [#155, N-(4-chloro-3-fluoro-phenyl)-2-[3-cyano-5,10-dimethyl-9-oxo-4,8,12-triazatricyclo[9.4.0.0^2,7]pentadeca-1(11),2(7),3,5,12,14-hexaen-8-yl]acetamide]
6 | 15.8 to 39.8 nM | 15.8 to 39.8 nM | Cc1cc2c(c(O)n1)-c1cccnc1C(C)C(=O)N2CC(=O)Nc1ccc(C(F)(F)F)cc1 (single isomer, unassigned) [#161, 2-(3-hydroxy-5,10-dimethyl-9-oxo-4,8,12-triazatricyclo[9.4.0.0^2,7]pentadeca-1(11),2(7),3,5,12,14-hexaen-8-yl)-N-[4-(trifluoromethyl)phenyl]acetamide]
7 | 15.8 to 39.8 nM | 15.8 to 39.8 nM | COCCOc1nc(C)cc2c1-c1cccnc1C(C)C(=O)N2CC(=O)Nc1ccc(C(F)(F)F)cc1 (single isomer, unassigned) [#162, 2-[3-(2-methoxyethoxy)-5,10-dimethyl-9-oxo-4,8,12-triazatricyclo[9.4.0.0^2,7]pentadeca-1(11),2(7),3,5,12,14-hexaen-8-yl]-N-[4-(trifluoromethyl)phenyl]acetamide]
8 | < 15.8 nM | < 15.8 nM | Cc1cc2c(c(=O)n1C)-c1ccc(F)cc1C(C)C(=O)N2CC(=O)Nc1ccc(Cl)c(F)c1 (single isomer, unassigned) [#174, N-(4-chloro-3-fluoro-phenyl)-2-(9-fluoro-2,3,7-trimethyl-1,6-dioxo-7H-pyrido[4,3-d][3]benzazepin-5-yl)acetamide]
9 | < 15.8 nM | < 15.8 nM | Cc1cc2c(c(=O)n1C)-c1ccccc1C(C)C(=O)N2CC(=O)Nc1ccc(C(F)F)cc1 (single isomer, unassigned) [#175, N-[4-(difluoromethyl)phenyl]-2-(2,3,7-trimethyl-1,6-dioxo-7H-pyrido[4,3-d][3]benzazepin-5-yl)acetamide]
10 | < 15.8 nM |  | O=C(CN1C(=O)C(O)c2ncc(F)cc2-c2c(F)cc(F)cc21)Nc1ccc(C(F)F)cc1 (single isomer, unassigned) [#318, N-[4-(difluoromethyl)phenyl]-2-[2,9,11-trifluoro-5-hydroxy-6-oxo-5H-pyrido[2,3-d][1]benzazepin-7-yl]acetamide]
11 | 39.8 to 100 nM |  | Cc1cc2c(c(C)n1)-c1ccc(C)nc1CC(=O)N2CC(=O)Nc1ccc(C(F)(F)F)cc1 [#70, N-[4-(trifluoromethyl)phenyl]-2-(3,5,13-trimethyl-9-oxo-4,8,12-triazatricyclo[9.4.0.0^2,7]pentadeca-1(11),2(7),3,5,12,14-hexaen-8-yl)acetamide]
12 | 15.8 to 39.8 nM |  | Cc1cc2c(c(F)n1)-c1cccnc1[C@@H](C)C(=O)N2CC(=O)Nc1cc(F)c(Cl)cc1F [#245, N-(4-chloro-2,5-difluoro-phenyl)-2-[(10R)-3-fluoro-5,10-dimethyl-9-oxo-4,8,12-triazatricyclo[9.4.0.0^2,7]pentadeca-1(15),2,4,6,11,13-hexaen-8-yl]acetamide]
13 | < 15.8 nM |  | CC1C(=O)N(CC(=O)Nc2ccc(C(F)F)cc2)c2cc(N3CC(F)(F)C3)nc(Cl)c2-c2cccnc21 (centres unmarked) [#292, 2-[3-chloro-5-(3,3-difluoroazetidin-1-yl)-10-methyl-9-oxo-4,8,12-triazatricyclo[9.4.0.0^2,7]pentadeca-1(15),2,4,6,11,13-hexaen-8-yl]-N-[4-(difluoromethyl)phenyl]acetamide]
14 | 39.8 to 100 nM |  | COc1ccc2c(c1)N(CC(=O)Nc1ccc(C(F)F)cc1)C(=O)C(C)c1ncccc1-2 (centres unmarked) [#305, N-[4-(difluoromethyl)phenyl]-2-(9-methoxy-5-methyl-6-oxo-5H-pyrido[2,3-d][1]benzazepin-7-yl)acetamide]
15 | < 15.8 nM |  | CC1C(=O)N(CC(=O)Nc2ccc(C(F)F)cc2)c2cc(C(F)F)nc(Cl)c2-c2cccnc21 (centres unmarked) [#338, 2-[3-chloro-5-(difluoromethyl)-10-methyl-9-oxo-4,8,12-triazatricyclo[9.4.0.0^2,7]pentadeca-1(11),2(7),3,5,12,14-hexaen-8-yl]-N-[4-(difluoromethyl)phenyl]acetamide]
16 | 39.8 to 100 nM |  | O=C(CN1C(=O)Cc2cc(Cl)ccc2-c2c1cc(C1CC1)nc2Cl)Nc1ccc(C(F)F)cc1 [#340, 2-(1,9-dichloro-3-cyclopropyl-6-oxo-7H-pyrido[4,3-d][3]benzazepin-5-yl)-N-[4-(difluoromethyl)phenyl]acetamide]
17 | 15.8 to 39.8 nM |  | CC1C(=O)N(CC(=O)Nc2ccc(Cl)c(F)c2)c2cc(C3(F)CN(C)C3)nc(Cl)c2-c2cccnc21 (centres unmarked) [#422, 2-[3-chloro-5-(3-fluoro-1-methyl-azetidin-3-yl)-10-methyl-9-oxo-4,8,12-triazatricyclo[9.4.0.0^2,7]pentadeca-1(11),2,4,6,12,14-hexaen-8-yl]-N-(4-chloro-3-fluoro-phenyl)acetamide]
